Reference: patent US8173643B2, “N-substituted thiomorpholine derivatives as the inhibitors of dipeptidyl peptidase IV and the pharmaceutical uses thereof” (Beijing Molecule Science and Technology Co., Ltd., priority 2007, dated 2012)
Structures can show the parent of a compound that is named as a salt. Values belong to the compound of their own block, whether it stands above or below them.

How the values were obtained:
DPP-IV = molecular target: T1, DPP-IV (Homo sapiens, UniProt P27487); assay: Determination of DPP-IV inhibitory activity and IC50 (enzyme from Caco-2 cell lysate, absorbance at 405 nm); assay type: biochemical; settings: for inhibition at 0.1 µM: Concentration 100 nM; for inhibition at 0.3 µM: Concentration 300 nM
T1 construct: endogenous in cells; host or cells: Caco-2 (human colon carcinoma), differentiated; NP-40 lysate, 35000 g supernatant
Experimental: Cultivation of human colon carcinoma cell-line cells (Caco-2): Caco-2 cells were cultivated in a culture medium of DMEM (high glucose, containing 10% fetal bovine serum, 1% NAA), and the cell lines were passaged in a proportion of 1:1 or 1:2; after nearly reaching confluence, the cells were further cultivated for 2-3 weeks, while changing the medium once every 2-3 days.
Preparation of DPP-IV: the cells were washed with a pre-cooled PBS for 2-3 times, and 0.5-1 ml ice-cold 10 mM Tris-HCl (containing 0.15 M NaCl, 0.04 t.i.u aprotinin, 0.5% nonionic detergent P40, pH 8) was added to each culture bottle to lysate the cells, followed by collecting them in a centrifuge tube. After centrifugation at 4° C., 35000 g for […], the obtained supernatant was collected, and subjected to a protein content detection, and then stored in a low temperature refrigerator.
The test groups included enzyme control group, substrate control group, enzyme reaction control group, and compound group, and the test was carried out in a 96-pore plate, using 150 μL reaction system. In the 96-pore plate, a diluted test compound was added in the compound group, 30 μL/pore; 20 μL DPP-IV solution was added in the enzyme control group, as well as in the compound group; an analytic buffer (25 mM Tris-HCl pH 7.4, containing 140 mM NaCl, 10 mM KCl, 1% bovine serum albumin) was added in 130 μL to the enzyme control group, in 125 μL to the substrate control group, in 105 μL to the enzyme reaction control group, and in 75 μL to the compound group; and then 25 μL substrate (1 mM) was added, followed by reacting at room temperature for 10 min. No substrate was added in the enzyme control group. After reacting for 10 min, 25% glacial acetic acid was added in 19 μL/pore to terminate the reaction. The absorbance was determined by using an enzyme calibrating apparatus at a wavelength of 405 nm.

obese mouse = settings: 10 mg/kg, 2 times/d, long-term treatment; cited from earlier work
[1] = system: streptozotocin-induced DM male mouse; settings: 2 times/d, after 7 weeks; cited from earlier work
[2] = pig, in vivo, cited from earlier work

T1 sequence (P27487 whole entry): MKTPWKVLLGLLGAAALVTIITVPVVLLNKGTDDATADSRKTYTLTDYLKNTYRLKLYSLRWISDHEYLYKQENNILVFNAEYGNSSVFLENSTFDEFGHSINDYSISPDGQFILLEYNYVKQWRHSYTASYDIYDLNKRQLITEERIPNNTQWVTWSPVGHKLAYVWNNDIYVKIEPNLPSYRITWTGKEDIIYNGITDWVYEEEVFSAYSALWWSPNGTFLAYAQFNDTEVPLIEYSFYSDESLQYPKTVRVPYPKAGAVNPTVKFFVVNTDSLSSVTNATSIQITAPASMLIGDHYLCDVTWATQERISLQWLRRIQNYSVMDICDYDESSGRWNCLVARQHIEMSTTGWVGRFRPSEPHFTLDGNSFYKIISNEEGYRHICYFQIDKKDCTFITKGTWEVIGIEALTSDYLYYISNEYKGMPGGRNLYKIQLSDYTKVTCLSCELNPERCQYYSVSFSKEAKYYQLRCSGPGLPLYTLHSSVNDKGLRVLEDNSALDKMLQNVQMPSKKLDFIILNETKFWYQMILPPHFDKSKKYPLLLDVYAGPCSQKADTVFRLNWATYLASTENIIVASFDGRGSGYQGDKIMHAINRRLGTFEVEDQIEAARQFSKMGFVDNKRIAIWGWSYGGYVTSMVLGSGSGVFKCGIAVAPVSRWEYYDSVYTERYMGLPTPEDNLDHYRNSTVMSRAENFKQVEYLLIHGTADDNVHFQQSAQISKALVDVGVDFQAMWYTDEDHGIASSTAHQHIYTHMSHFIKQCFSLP

inhibition at 0.01 µM (DPP-IV; Concentration 10 nM, read-out: Inhibitory rate(%)): 7.65 ± 0.68%
inhibition at 0.03 µM (DPP-IV; Concentration 30 nM, read-out: Inhibitory rate(%)): 13.2 ± 1.92%
inhibition at 0.1 µM (DPP-IV; read-out: Inhibitory rate(%)): 40.3 ± 3.09%
inhibition at 0.3 µM (DPP-IV; read-out: Inhibitory rate(%)): 73 ± 1.74%
inhibition at 1 µM (DPP-IV; Concentration 1000 nM, read-out: Inhibitory rate(%)): 101 ± 1.36%
IC50 (DPP-IV; DPP-IV from Caco-2 cells): 189 ± 26.4 nM
Compound: CC(C)[C@@H](N)C(=O)N1CCSC[C@H]1C#N (stereo in doubt) [Compound 1, (R)-3-cyano-4-(2-amino-3-methyl-butyryl)thiomorpholine hydrochloride]

inhibition at 0.1 µM (DPP-IV; read-out: Inhibitory rate(%)): 24.1 ± 2.41%
inhibition at 0.3 µM (DPP-IV; read-out: Inhibitory rate(%)): 47.2 ± 0.64%
Compound: CC(C)C[C@@H](N)C(=O)N1CCSC[C@H]1C#N [Compound 2, (R)-3-cyano-4-(2-amino-4-methyl-pentanoyl)thiomorpholine hydrochloride]

Compound: CC(C)(C)[C@H](N)C(=O)N1CCC[C@H]1C#N [FE 999011]
postponement of the occurrence of hyperglycemia (obese mouse): 21 days

Compound: CC[C@H](C)[C@H](N)C(=O)N1CCSC1 [P32/98]
fraction of islet β cells increased, as compared with the control group [1]: 12%
number of islets increased, as compared with the control group [1]: 35%
number of overall β cells increased, as compared with the control group [1]: 120%
plasma insulin level [1]: approaching to normal

Compound: GIP: gastric inhibitory peptide, an incretin secreted by K cells, substrate of DPP-IV
immunocompetence of intact GIP shown by radioimmunoassay ([2]; iv): 14.5%
immunocompetence of GIP [2]: 49%
